Assay [1] deals with G-protein coupled receptor 183 (Homo sapiens, UniProt P32249). The experiment in a line: SAR confirmation of small molecule antagonists of the EBI2 receptor via a luminescent beta-arrestin assa. It counts as functional.
The nature of assay [2]: P. falciparum Dd2 growth inhibitors, dose response, SYBR Green, cherry-picked samples (AID 1159567). It counts as functional, cell-based.
Assay [3] can be described thus: inhibitors acting on PAX2 in cells – cell-based, plate reader, dry powder samples, selectivity assay for PAX8 inhibitor project, dose response (AID 743048).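 Note: HEK293 cells carrying a WT1 promoter luciferase reporter driven by expressed Pax2; potency is for inhibition of Pax2 driven reporter signal.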 Type of assay: functional.
Assay [4] is described as follows: COV362 cell viability loss – plate reader, dry powder, SA12, cytotoxicity control for PAX8 inhibitor project, dose response (AID 743144). It counts as functional, cell-based.
A short description of assay [5]: PAX8-dependent cell viability loss – plate reader, dry powder, dose response (AID 743049). It counts as functional, cell-based.
Assay [6] in a line: PAX5 cellular inhibition readout – cell-based, plate reader, dry powder samples, selectivity assay for PAX8 inhibitor project, dose response (AID 743047).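 Note: HEK293 cells carrying a Pax5 driven CD19 promoter luciferase reporter; potency of inhibitors that lower reporter luminescence.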 Type of assay: functional.
Assay [7] in a line: OVCAR8 cell viability loss – plate reader, dry powder samples, PAX8 project, dose response (AID 743197). It counts as functional, cell-based. To be noted: OVCAR-8.
A short description of assay [8]: OV-90 cell viability loss – plate reader, dry powder, SA8, PAX8 inhibitor project, dose response (AID 743149). Type of assay: functional, cell-based.
Assay [9] is described as follows: Dd2 malaria parasite growth inhibition potency – SYBR Green, dry powder samples, dose response (AID 1159566).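 Note: potency for growth inhibition with lower SYBR green DNA signal.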 It counts as functional, cell-based.
Assay [10] is described as follows: growth inhibition of PfATP4-mutant resistant parasites – NITD609-resistant line, SYBR Green, dry powder, dose response (AID 1159571).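 Note: parasites synchronized at ring stage by sorbitol before testing.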 It counts as functional, cell-based.
The nature of assay [11]: COV434 cell viability loss – plate reader, dry powder, SA7, cytotoxicity control for PAX8 inhibitor project, dose response (AID 743145). Type of assay: functional, cell-based.
The nature of assay [12]: growth inhibition of yeast DHODH-expressing 3D7 parasites – SYBR Green, dry powder samples, dose response (AID 1159570).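 Note: parasite growth measured after 72 hours of compound exposure.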 Type of assay: functional, cell-based.
Assay [13] can be described thus: toxicity to human hepatoma HepG2 cells – cell-based, cherry-picked samples, cytotoxicity control, dose response (AID 1159577). Type of assay: functional.
Assay [14] can be described thus: OVCAR-3 cell viability loss – plate reader, dry powder samples, PAX8 inhibitor project, dose response (AID 743044). Type of assay: functional, cell-based.
Assay [15] can be described thus: toxicity toward immortalized ovarian surface epithelium – cell-based, plate reader, dry powder samples, cytotoxicity control for PAX8 inhibitor project, dose response (AID 743045). Type of assay: functional.
Assay [16] can be described thus: OVCAR4 cell viability loss – plate reader, dry powder, SA11, cytotoxicity control for PAX8 inhibitor project, dose response (AID 743150). It counts as functional, cell-based. To be noted: OVCAR-4.
Another assay addresses Paired box protein Pax-8 (Homo sapiens, UniProt Q06710). The experiment in a line: PAX8 transcriptional activity inhibition in RMG-I – RMG-I cells, luciferase, cherry-pick, dose response (AID 687027).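 Note: luciferase reporter driven by Pax8 target thyroperoxidase promoter measured by SteadyGlo luminescence.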 It counts as functional, cell-based.
Assay [17] in a line: toxicity to human HepG2 hepatoma cells – cell-based, plate reader, dry powder samples, cytotoxicity control, dose response (AID 1159569).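 Note: inhibitor potency with signal falling toward the positive control level.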 It counts as functional.
Assay [18] can be described thus: IGROV1 cell killing – plate reader, dry powder samples, PAX8 inhibitor project, dose response (AID 743043). It counts as functional, cell-based. To be noted: IGROV-1.
The next assay concerns Vero. The experiment in a line: cells. Type of assay: functional. To be noted: Chlorocebus sabaeus.
The target of assay [19] is Neurotensin receptor type 1 (Homo sapiens, UniProt P30989). Type of assay: functional.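 Note: Image-based confirmatory dose-response assay measuring agonist activity at NTR1; NTR1-expressing U2OS osteosarcoma cells imaged for beta-arrestin GFP spot formation; agonist potency where compounds increase beta-arrestin recruitment.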
The subject of the next assay is INS1. The experiment in a line: INS-1E survival protection against cytokine death – cell-based, luminescence, retest, dose response (AID 449756).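 Note: cell death triggered by IL-1 beta plus TNF-alpha plus IFN-gamma mixture; protective hits raise ATP signal compared with cytokine alone wells.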 It counts as functional. To be noted: Rattus norvegicus.
Assay [20] can be described thus: reduction of Shn3 3'UTR-driven luciferase in osteoblasts – cell-based, Clone20 osteoblasts, firefly luciferase, cherry-picked, dose response (AID 624132).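 Note: firefly luciferase luminescence from reporter carrying the Shn3 3'UTR in osteoblasts.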 It counts as functional.
Assay [21] can be described thus: non-specific 3'UTR reporter inhibition in Clone20-Shn3RL – cell-based, Renilla luciferase, cherry-picked, counter-screen for Shn3 inhibitor project, dose response (AID 624133). It counts as functional. (In general: A counterscreen serves to expose hits that act by an unwanted route or on another target.)
Assay [22] can be described thus: A2780 cell killing – plate reader, dry powder samples, cytotoxicity control, dose response (AID 743046). It counts as functional, cell-based.
The target of assay [23] is T1, Replicative DNA helicase DnaB (Mycobacterium tuberculosis, UniProt P9WMR3).
T1 sequence (P9WMR3 whole entry): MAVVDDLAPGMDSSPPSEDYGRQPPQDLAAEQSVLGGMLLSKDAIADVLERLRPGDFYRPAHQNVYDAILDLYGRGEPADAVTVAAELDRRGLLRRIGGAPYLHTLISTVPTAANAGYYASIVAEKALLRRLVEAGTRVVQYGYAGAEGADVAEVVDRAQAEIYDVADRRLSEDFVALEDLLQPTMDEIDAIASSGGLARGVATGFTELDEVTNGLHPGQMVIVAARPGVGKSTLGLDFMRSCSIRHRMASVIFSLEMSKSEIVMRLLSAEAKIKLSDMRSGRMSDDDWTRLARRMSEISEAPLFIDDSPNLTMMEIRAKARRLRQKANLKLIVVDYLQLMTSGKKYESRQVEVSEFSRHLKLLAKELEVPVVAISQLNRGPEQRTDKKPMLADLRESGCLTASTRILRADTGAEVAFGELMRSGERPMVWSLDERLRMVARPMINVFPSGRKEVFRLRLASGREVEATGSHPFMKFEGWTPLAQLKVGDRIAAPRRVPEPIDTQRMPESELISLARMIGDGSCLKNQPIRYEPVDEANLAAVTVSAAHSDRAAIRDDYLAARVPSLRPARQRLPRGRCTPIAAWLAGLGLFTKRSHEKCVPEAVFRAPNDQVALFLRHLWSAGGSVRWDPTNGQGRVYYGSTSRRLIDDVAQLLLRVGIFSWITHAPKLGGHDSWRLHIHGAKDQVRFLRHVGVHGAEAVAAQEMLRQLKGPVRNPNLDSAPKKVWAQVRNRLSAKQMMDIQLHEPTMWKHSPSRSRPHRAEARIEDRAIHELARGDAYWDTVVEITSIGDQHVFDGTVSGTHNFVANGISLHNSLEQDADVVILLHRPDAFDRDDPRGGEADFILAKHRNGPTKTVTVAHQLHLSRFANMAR
The experiment in a line: DnaB intein splicing inhibitors, dose response, biochemical, cell-free fluorescence (AID 449749). It counts as functional.

Assay [24] in a line: loss of viability in HepG2 cells – cell-based, CellTiter-Glo, cherry-picked, cytotoxicity control for Shn3 inhibitor project, dose response (AID 624134). Type of assay: functional.
A further assay deals with T2, Protein RecA (Mycobacterium tuberculosis, UniProt P9WHJ3).
T2 sequence (P9WHJ3 whole entry): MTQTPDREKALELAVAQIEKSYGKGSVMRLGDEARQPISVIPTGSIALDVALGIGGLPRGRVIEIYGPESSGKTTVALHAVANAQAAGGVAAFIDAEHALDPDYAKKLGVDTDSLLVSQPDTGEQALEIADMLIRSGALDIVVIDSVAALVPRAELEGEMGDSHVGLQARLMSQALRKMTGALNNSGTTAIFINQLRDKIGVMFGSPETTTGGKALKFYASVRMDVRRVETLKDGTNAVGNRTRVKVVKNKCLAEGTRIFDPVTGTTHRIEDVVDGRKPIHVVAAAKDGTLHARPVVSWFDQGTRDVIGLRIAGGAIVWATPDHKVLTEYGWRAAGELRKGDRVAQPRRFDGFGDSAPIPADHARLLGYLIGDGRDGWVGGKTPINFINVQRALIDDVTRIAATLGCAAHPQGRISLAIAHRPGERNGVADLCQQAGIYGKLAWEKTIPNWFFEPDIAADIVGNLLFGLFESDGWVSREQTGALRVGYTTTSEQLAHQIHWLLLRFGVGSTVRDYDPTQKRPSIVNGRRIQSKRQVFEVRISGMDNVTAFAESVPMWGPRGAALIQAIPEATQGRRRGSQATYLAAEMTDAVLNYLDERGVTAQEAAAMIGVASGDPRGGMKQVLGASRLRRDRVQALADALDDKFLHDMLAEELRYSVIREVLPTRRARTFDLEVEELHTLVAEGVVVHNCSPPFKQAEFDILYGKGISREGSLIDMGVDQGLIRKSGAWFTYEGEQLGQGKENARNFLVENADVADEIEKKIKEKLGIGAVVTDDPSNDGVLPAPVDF
Kind of assay: Fluorescence Cell-Free Homogeneous Dose Retest to Identify Inhibitors of RecA-Intein Splicing Activity. [Related pubchem assays (depositor defined):AID2097, AID2223, AID489010, AID492950]. Type of assay: functional.

The target in assay [25] is T3, Hepatocyte nuclear factor 4-alpha (Homo sapiens, UniProt P41235).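 Note: biochemical luminescence-based dose-response counterscreen measuring inhibition of HNF4 dimerization, run alongside a screen for blockers of ABHD5–perilipin-5 interaction; split luciferase complementation of HNF4 fusion proteins in cell lysate measuring dimerization.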
T3 sequence (P41235 whole entry): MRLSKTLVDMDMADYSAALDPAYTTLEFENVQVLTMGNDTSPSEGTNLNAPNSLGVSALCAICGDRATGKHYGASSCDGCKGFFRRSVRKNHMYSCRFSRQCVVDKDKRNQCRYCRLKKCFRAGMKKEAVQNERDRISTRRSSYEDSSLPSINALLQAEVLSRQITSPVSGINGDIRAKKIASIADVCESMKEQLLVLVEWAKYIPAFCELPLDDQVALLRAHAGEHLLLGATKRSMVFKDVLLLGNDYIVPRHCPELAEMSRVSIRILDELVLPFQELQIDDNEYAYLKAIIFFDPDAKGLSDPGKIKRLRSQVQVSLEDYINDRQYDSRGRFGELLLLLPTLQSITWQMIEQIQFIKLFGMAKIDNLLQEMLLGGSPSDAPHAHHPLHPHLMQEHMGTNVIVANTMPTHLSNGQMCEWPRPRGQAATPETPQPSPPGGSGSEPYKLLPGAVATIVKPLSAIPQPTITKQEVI
Type of assay: functional, cell-based.

Another assay in a line: cells. It counts as functional, cell-based. To be noted: INS-1E.
Assay [26] in a line: IC50 of insulin release inhibition, rat insulinoma INS-1E line, 5 mM glucose, cell-based (AID 1117331). It counts as functional.

Structures are written as SMILES. Active and inactive are the calls of the source. Bounds are passed on as bounds.

A word on the IC50: it is the concentration at which inhibition is half-maximal. As a reminder, the AC50 is the concentration at which the activity in the assay is half-maximal. By CC50 is commonly meant the concentration at which the toxic effect on the cells reaches its halfway point. By EC50 is commonly meant the concentration giving half of the maximal effect.

G-protein coupled receptor 183, sequence (P32249 whole entry): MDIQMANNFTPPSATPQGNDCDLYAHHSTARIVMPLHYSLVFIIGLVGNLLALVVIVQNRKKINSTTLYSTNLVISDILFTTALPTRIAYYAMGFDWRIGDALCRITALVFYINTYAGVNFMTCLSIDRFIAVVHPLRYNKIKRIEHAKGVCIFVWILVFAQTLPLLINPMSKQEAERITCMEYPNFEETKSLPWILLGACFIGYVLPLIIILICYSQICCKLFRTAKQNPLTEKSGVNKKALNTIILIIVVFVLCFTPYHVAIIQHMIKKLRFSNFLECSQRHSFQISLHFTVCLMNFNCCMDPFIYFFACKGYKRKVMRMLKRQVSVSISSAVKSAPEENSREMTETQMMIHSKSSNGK
Paired box protein Pax-8, sequence (Q06710 whole entry): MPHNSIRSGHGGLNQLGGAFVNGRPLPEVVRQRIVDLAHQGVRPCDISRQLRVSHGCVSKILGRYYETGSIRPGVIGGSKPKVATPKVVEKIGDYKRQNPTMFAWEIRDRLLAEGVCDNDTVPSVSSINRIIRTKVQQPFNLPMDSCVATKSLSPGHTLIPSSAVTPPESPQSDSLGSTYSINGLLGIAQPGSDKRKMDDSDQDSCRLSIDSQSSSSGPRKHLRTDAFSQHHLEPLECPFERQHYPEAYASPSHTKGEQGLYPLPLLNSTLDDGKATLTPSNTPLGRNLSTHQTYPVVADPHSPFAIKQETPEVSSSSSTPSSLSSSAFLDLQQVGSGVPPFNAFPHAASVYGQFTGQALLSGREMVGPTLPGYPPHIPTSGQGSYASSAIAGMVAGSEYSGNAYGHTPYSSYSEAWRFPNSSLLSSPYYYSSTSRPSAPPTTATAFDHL
Neurotensin receptor type 1, sequence (P30989 whole entry): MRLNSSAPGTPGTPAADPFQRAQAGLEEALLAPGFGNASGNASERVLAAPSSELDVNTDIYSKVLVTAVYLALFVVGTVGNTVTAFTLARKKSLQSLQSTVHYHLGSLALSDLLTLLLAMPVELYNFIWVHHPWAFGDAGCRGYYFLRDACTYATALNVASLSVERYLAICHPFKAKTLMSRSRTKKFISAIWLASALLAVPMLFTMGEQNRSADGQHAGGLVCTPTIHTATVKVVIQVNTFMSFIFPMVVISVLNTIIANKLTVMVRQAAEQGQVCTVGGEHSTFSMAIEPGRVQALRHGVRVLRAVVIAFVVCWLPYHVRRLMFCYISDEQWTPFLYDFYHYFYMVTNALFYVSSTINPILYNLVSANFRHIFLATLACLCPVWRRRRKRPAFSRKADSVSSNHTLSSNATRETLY

For `O=C(/C=C/c1ccc(Br)cc1)N1CCN(Cc2cccc(F)c2)CC1`, in [1], the IC50 was 0.00261 µM (active).
For the molecule `COc1ccccc1C#Cc1ccc([C@H]2[C@@H](CO)N(C(=O)C3CCCCC3)[C@H]2C#N)cc1`, the AC50 in [2] is 1.36 µM (active); in [3] it was 9.82 µM (active); in assay [4], 36.4 µM (active); in assay [5], 12.2 µM (active); in assay [6], 6.15 µM (active); in assay [7] it was 60.8 µM (active). Moreover, the concentration at half-maximal activity (AC50) was 28.6 µM (active) in assay [8]; 0.684 µM (active) in [9]; 1.53 µM (active) in assay [10]; 20.6 µM (active) in [11]; 1.19 µM (active) in assay [12]; > 39 µM (inactive) in [13]. Besides, the AC50 in assay [14] is 18.9 µM (active); in assay [15], 42.5 µM (active); in assay [16] it was 63.6 µM (active); on Paired box protein Pax-8, 3.4 µM (active); in assay [17], 35.2 µM (active); in assay [18], 44.8 µM (active).
`O=C(/C=C/c1ccccc1)N1CCN(Cc2ccc(F)cc2)CC1`: in assay [1], the IC50 was 0.0216 µM (active).
For the molecule `O=C(Nc1ccc(Cl)cc1)/C(=C/c1cccc(O)c1)c1nc2ccccc2s1`, the cytotoxic concentration (CC50) in the assay on Vero was 2.37 µM (active). In addition, the results for the EC50 (in [19]; at Protein RecA) were 6.69 µM (active) and 0.481 µM (active), respectively. The AC50 with INS1 was 3.7 µM (active); in [20], 3.53 µM (active); in assay [3], 12.8 µM (active); in [21] it was 9.54 µM (active); in assay [4] it was 5.28 µM (active); in [5] it was 4.02 µM (active). Further, the AC50 in assay [22] was 15.1 µM (active); in [6], 7.08 µM (active); in assay [8], 4.14 µM (active); in [23], > 380 µM (inconclusive); in [11], 9.35 µM (active); in assay [24], 9.66 µM (active). Further, the AC50 in [14] is 8.14 µM (active); in [15] it was 11.5 µM (active); in assay [16], 13.7 µM (active); on Paired box protein Pax-8 it was 3.92 µM (active); in assay [18], 30.7 µM (active). Besides, the half-inhibitory concentration (IC50) in [25] was 4.66 µM (active).
`CN1CCCN(C(c2ccccc2)c2ccc(Cl)cc2)CC1` (stereo not drawn) [HOMOCHLORCYCLIZINE]: the IC50 was > 33.3 µM (inactive) in the assay “cells” and > 3.7 µM (inactive) in [26].

The values are drawn from ChEMBL document CHEMBL1201862, “PubChem BioAssay data set” (2004).
